Reference: US4080449A, “1,2,4,5-Tetrahydro-3H-2-benzazepin-3-ones” (U C B, Societe Anonyme, priority 1976, dated 1978)
Where “and” joins values, the source holds several entries; their conditions need not be identical. Identical values can stand only once.

How the values were obtained:
spinal fixation time [1] = assay: spinal fixation test (elementary model of memory) after unilateral cerebellar lesion; type: in vivo; settings: rat, i.p., 0.1 mmole/kg (A 17.5, B 22, C 23.7 mg/kg); spinal section 35 minutes after onset of asymmetry
Text: Action on the mnemic processes is shown particularly by the reduction in the time for spinal fixation, a test which has been described in the literature (see C. Giurgea and F. Mouravieff-Lesuisse, Arch. Int. Pharmacodyn, 191/2, (1971), 279) as an elementary model of memory which is endowed with a pharmacological reactivity in good correlation with clinical physiopathology. In the rat, after unilateral lesion of the cerebellum, there is a postural asymmetry of the hind paws. This asymmetry may persist, even after spinal section, if the animal has been in this situation for a sufficiently long time. This time, which is called the spinal fixation time, is 45 minutes under the experimental conditions. On the other hand, if spinal section is performed before the expiry of this period, for example 35 minutes after the onset of the asymmetry, the latter disappears. […] Conversely, any product which allows the rats to retain the asymmetry (thus achieving spinal fixation) when the spinal section is carried out after 35 minutes, is regarded as being active.
Under these conditions, administration of a compound according to the present invention, for example 2-methyl-1,2,4,5-tetrahydro-3H-2-benzazepin-3-one (compound A), 2-carbamoylmethyl-1,2,4,5-tetrahydro-3H-2-benzazepin-3-one (compound B) and 5-phenyl-1,2,4,5-tetrahydro-3H-2-benzazepin-3-one (compound C) produces the following effects: […]

[2] = system: withdrawal reaction of a rat's paw; assay: active avoidance test (memory retention, paw pressure withdrawal); type: in vivo; settings: for Stimulus initiating the avoidance reaction 24 hours after the first stimulation: s.c.; for minimal effective dose: sc, minimum dose which lowers the stimulus to below 110 g
Text: The principle of the active avoidance test, which has been developed in our laboratories and used for this purpose, may be described as follows: the withdrawal reaction of a rat's paw subjected to an increasing and measured pressure is observed. The pressure at which the withdrawal reaction is produced is called the reaction threshold. The latter is expressed in grams and thus corresponds to the minimum pressure which, when applied to the paw of the animals, causes withdrawal. It is read off directly from a scale of the apparatus used. […] Use is made of a minimum of 20 rats per test (10 treated rats and 10 control rats), the active dose being defined as the minimum dose which lowers the stimulus to below 110 g.

spinal fixation time [3] = settings: rat, 30 mg/kg (0.2 millimole/kg), same conditions; C. Giurgea and F. Mouravieff-Lesuisse, loc.cit.; cited from earlier work
[4] = system: lethality induced by a curarizing agent, oxydipentonium chloride (Brevatonal); assay: Brevatonal test (protection against lethality induced by oxydipentonium chloride, hypoxia); type: in vivo; settings: mice, i.p.
Description: At the doses used, this curarizing agent brings about a respiratory depression which, in turn, brings about a hypoxi-hypercapnic syndrome. A compound capable of protecting the brain during this short period of hypoxia ensures survival. The compounds are administered to groups of 10 mice one hour before the injection of the curarizing agent; concurrently herewith, a control group of 10 mice is given a physiological salt solution prior to the curarizing agent. For each compound, the proportion of surviving mice is compared with the proportion of surviving control mice by the "Fisher exact probability test". This test, called the Brevatonal test, has also been developed in our laboratories.
Intraperitoneal administration (i.p.) of compounds according to the present invention, namely, 2-methyl-1,2,4,5-tetrahydro-3H-2-benzazepin-3-one (compound A), 2,4-dimethyl-1,2,4,5-tetrahydro-3H-2-benzazepin-3-one (compound G), 2-isobutyl-4-methyl-1,2,4,5-tetrahydro-3H-2-benzazepin-3-one(compound H), 7-chloro-2-methyl-1,2,4,5-tetrahydro-3H-2-benzazepin-3-one (compound J) 8-chloro-2-methyl-1,2,4,5-tetrahydro-3H-2-benzazepin-3-one (compound K) and 8-methyl-2-pentyl-1,2,4,5-tetrahydro-3H-2-benzazepin-3-one (compound L), produces under these conditions the effects set out in the following Table II.

[5] = LD50 determined intraperitoneally in the rat (Spearman-Karber); settings: in vivo, ip, intraperitoneal
Description: The LD50 doses were determined intraperitoneally in the rat and calculated by using the method of Spearman-Karber (D. J. Finney, Statistical Methods in Biological Assay, pub. Griffin & Co., London, 1952, p. 524).

[6] = pharmacological properties of the compounds according to the present invention (Table III footnote, test not specified); type: in vivo
[7] = 2 mg/kg (0.01 mmole/kg), control G 1/10, H 2/10
[8] = 0.175 mg/kg, control (0 mg/kg) A 164, F 154

In the case of `O=C1CC(c2ccccc2)c2ccccc2CN1` (stereo not shown) [C, 5-phenyl-1,2,4,5-tetrahydro-3H-2-benzazepin-3-one], the “spinal fixation after 35 minutes (animals with fixation)” value (from here on “spinal fixation after 35 minutes”) (spinal fixation time [1]) was “four animals out of five”.

In the case of `NC(=O)CN1CCCC1=O` [piracetam, reference compound], the “Stimulus initiating the avoidance reaction 24 hours after the first stimulation” value ([2]; 1.5 mg/kg, control (0 mg/kg) 153) was 120 g, the “Stimulus initiating the avoidance reaction 24 hours after the first stimulation” value ([2]; 3.5 mg/kg, control (0 mg/kg) 153) was 90 g and the minimal effective dose [2] was 3.5 mg/kg and 25 µmol/kg. The “retention in active avoidance test” value ([2]; tested 24 hours later, versus control animals, dose not given in sentence) was “significant degree of retention”, the “spinal fixation (animals with fixation)” value (spinal fixation time [3]) was “four animals out of nine” and the Fisher exact probability ([4]; 45 mg/kg (0.32 mmole/kg)) was “not significant”. The “Proportion of survivors, treated animals” value ([4]; 45 mg/kg (0.32 mmole/kg), control 0/10) was 1/10, the Fisher exact probability ([4]; 142 mg/kg (1 mmole/kg)) was “not significant” and the “Proportion of survivors, treated animals” value ([4]; 142 mg/kg (1 mmole/kg), control 2/10) was 4/10. The Fisher exact probability ([4]; 454 mg/kg (3.2 mmole/kg)) was less than 0.005 and the “Proportion of survivors, treated animals” value ([4]; 454 mg/kg (3.2 mmole/kg), control 1/10) was 8/10.

For `CC1Cc2ccccc2CN(C)C1=O` (stereo not shown) [G, 2,4-dimethyl-1,2,4,5-tetrahydro-3H-2-benzazepin-3-one], the Fisher exact probability ([4]; 2 mg/kg (0.01 mmole/kg)) was less than 0.05 and the “Proportion of survivors, treated animals” value [4, 7] was 6/10.

For `CN1Cc2ccccc2CCC1=O` [A, 2-methyl-1,2,4,5-tetrahydro-3H-2-benzazepin-3-one], the LD50 [5] was 760 mg/kg, the “spinal fixation after 35 minutes” value (spinal fixation time [1]) was “three animals out of five” and the “Stimulus initiating the avoidance reaction 24 hours after the first stimulation” value ([2]; 0.09 mg/kg, control (0 mg/kg) 164) was 146 g. For the same compound, the “Stimulus initiating the avoidance reaction 24 hours after the first stimulation” value [2, 8] was 106 g, the minimal effective dose [2] was 0.175 mg/kg and 1 µmol/kg and the Fisher exact probability ([4]; 55 mg/kg (0.32 mmole/kg)) was less than 0.005. The “Proportion of survivors, treated animals” value ([4]; 55 mg/kg (0.32 mmole/kg), control 0/10) was 7/10.

For `CN1Cc2cc(Cl)ccc2CCC1=O` [K, 8-chloro-2-methyl-1,2,4,5-tetrahydro-3H-2-benzazepin-3-one], the Fisher exact probability ([4]; 21 mg/kg (0.12 mmole/kg as printed)) was less than 0.05, the “Proportion of survivors, treated animals” value ([4]; 21 mg/kg (0.12 mmole/kg as printed), control 1/10) was 6/10 and the Fisher exact probability ([4]; 66 mg/kg (0.37 mmole/kg as printed)) was less than 0.05. The “Proportion of survivors, treated animals” value ([4]; 66 mg/kg (0.37 mmole/kg as printed), control 1/10) was 6/10.

For `CCCCCN1Cc2cc(C)ccc2CCC1=O` [L, 8-methyl-2-pentyl-1,2,4,5-tetrahydro-3H-2-benzazepin-3-one], the Fisher exact probability ([4]; 78 mg/kg (0.32 mmole/kg)) was less than 0.05 and the “Proportion of survivors, treated animals” value ([4]; 78 mg/kg (0.32 mmole/kg), control 0/5) was 6/10.

For `NC(=O)CN1Cc2ccccc2CCC1=O` [B, 2-carbamoylmethyl-1,2,4,5-tetrahydro-3H-2-benzazepin-3-one], the “spinal fixation after 35 minutes” value (spinal fixation time [1]) was “two animals out of four”.

In the case of `CN1Cc2ccc(Cl)cc2CCC1=O` [J, 7-chloro-2-methyl-1,2,4,5-tetrahydro-3H-2-benzazepin-3-one], the Fisher exact probability ([4]; 21 mg/kg (0.1 mmole/kg)) was less than 0.01, the “Proportion of survivors, treated animals” value ([4]; 21 mg/kg (0.1 mmole/kg), control 1/10) was 7/10 and the Fisher exact probability ([4]; 66 mg/kg (0.32 mmole/kg)) was less than 0.005. The “Proportion of survivors, treated animals” value ([4]; 66 mg/kg (0.32 mmole/kg), control 1/10) was 8/10.

With `COc1ccc2c(c1)CCC(=O)N(C)C2` [D, 7-methoxy-2-methyl-1,2,4,5-tetrahydro-3H-2-benzazepin-3-one] the “Stimulus initiating the avoidance reaction 24 hours after the first stimulation” value ([2]; 0.205 mg/kg, control (0 mg/kg) 165) was 118 g, the “Stimulus initiating the avoidance reaction 24 hours after the first stimulation” value ([2]; 1 mg/kg, control (0 mg/kg) 165) was 90 g and the minimal effective dose [2] was 1 mg/kg and 5 µmol/kg.

In the case of `CC(C)CN1Cc2ccccc2CC(C)C1=O` (stereo not shown) [H, 2-isobutyl-4-methyl-1,2,4,5-tetrahydro-3H-2-benzazepin-3-one], the Fisher exact probability ([4]; 2 mg/kg (0.01 mmole/kg)) was less than 0.005, the “Proportion of survivors, treated animals” value [4, 7] was 9/10 and the Fisher exact probability ([4]; 7 mg/kg (0.032 mmole/kg)) was less than 0.05. The “Proportion of survivors, treated animals” value ([4]; 7 mg/kg (0.032 mmole/kg), control 2/10) was 7/10, the Fisher exact probability ([4]; 23 mg/kg (0.1 mmole/kg)) was less than 0.001 and the “Proportion of survivors, treated animals” value ([4]; 23 mg/kg (0.1 mmole/kg), control 1/10) was 9/10.

In the case of `CCCCCN1Cc2ccccc2CC(C)C1=O` (stereo not shown) [E, 4-methyl-2-pentyl-1,2,4,5-tetrahydro-3H-2-benzazepin-3-one], the “Stimulus initiating the avoidance reaction 24 hours after the first stimulation” value ([2]; 0.24 mg/kg, control (0 mg/kg) 166) was 122 g, the “Stimulus initiating the avoidance reaction 24 hours after the first stimulation” value ([2]; 0.49 mg/kg, control (0 mg/kg) 166) was 89 g and the minimal effective dose [2] was 0.49 mg/kg and 2 µmol/kg.

With `Cc1ccc2c(c1)CNC(=O)CC2` [F, 8-methyl-1,2,4,5-tetrahydro-3H-2-benzazepin-3-one] the “Stimulus initiating the avoidance reaction 24 hours after the first stimulation” value [2, 8] was 121 g, the “Stimulus initiating the avoidance reaction 24 hours after the first stimulation” value ([2]; 0.35 mg/kg, control (0 mg/kg) 154) was 111 g and the “Stimulus initiating the avoidance reaction 24 hours after the first stimulation” value ([2]; 0.87 mg/kg, control (0 mg/kg) 154) was 101 g. The minimal effective dose [2] was 0.87 mg/kg and 5 µmol/kg.

In the case of `O=C1CCc2ccccc2CN1` [1,2,4,5-tetrahydro-3H-2-benzazepin-3-one], the “pharmacological properties of the compounds according to the present invention” value [6] was “does not have th”.
